We go through four compounds from ChEMBL document CHEMBL1201862, “PubChem BioAssay data set” (2004).

Test systems include MDA-MB-231; SNB-19; UACC-62; K562; OVCAR-8; A498; CCRF-CEM; MDA-N; U-251; HCT-116; IGROV-1; CAKI-1; UACC-257; MDA-MB-435; M14; NCI-H226; T47D; DU-145; HCT-15.
What all share (assay): NCI-60 cell line screen, 48 h

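All cell lines were grown in 96-well plates and treated with compound for 48 hours. GI50 = concentration required for 50% inhibition of growth.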 Calls of active or inactive are those of the source. Cut-off read from the data, not from the text of the source: active = GI50 up to about 1.1 µM and inactive = higher. Bounds are passed on as bounds.

For `C[C@H]1[C@H]2[C@H](C[C@@]3(C)C4=CC[C@H]5C(C)(C)[C@@H](OC6OCC(O)C(O)C6O)CC[C@@]56C[C@@]46CC[C@]23C)O[C@@]2(O)[C@@H]1OC(C)(C)[C@H]2O` (stereo partly specified), the GI50 in the test on MDA-MB-231 is 1.81 µM (inactive); in the test on SNB-19, 2.49 µM (inactive); in the test on UACC-62, 1.61 µM (inactive); in the test with K562, 2.39 µM (inactive); in the test with OVCAR-8, 0.879 µM (active); in the test on A498, 1.89 µM (inactive). The GI50 is 0.791 µM (active) with CCRF-CEM; 2.28 µM (inactive) in the test on MDA-N; 1.69 µM (inactive) in the test with U-251; 1.45 µM (inactive) in the test on HCT-116; 0.918 µM (active) in the test on IGROV-1; 2.05 µM (inactive) in the test with CAKI-1. Moreover, the GI50 in the test with UACC-257 is 1.6 µM (inactive); with MDA-MB-435, 0.984 µM (active); in the test on M14, 3.83 µM (inactive); with NCI-H226, 2.44 µM (inactive); in the test on T47D, 0.83 µM (active); in the test with DU-145, 1.02 µM (active). In the test with HCT-15, the GI50 is 1.05 µM.

`N=C(CC(=O)Nc1ccccn1)c1ccccc1`: the GI50 in the test with MDA-MB-231, with SNB-19, in the test on UACC-62, in the test with K562, in the test on OVCAR-8 and with A498 was > 100 µM (inactive) each time. The GI50 in the test with CCRF-CEM, in the test on MDA-N, with U-251, in the test on HCT-116, in the test on IGROV-1 and in the test on CAKI-1 was > 100 µM (inactive) each time. Besides, the GI50 with UACC-257, in the test on MDA-MB-435, in the test with M14, in the test on NCI-H226, in the test on T47D and with DU-145 was > 100 µM (inactive) throughout. The GI50 with HCT-15 was > 100 µM.

For `O=C(N/N=C(COc1ccccc1)\N=C\c1cccnc1)c1ccncc1`, the GI50 with MDA-MB-231, with SNB-19, in the test with UACC-62, in the test with K562, in the test on OVCAR-8 and with A498 was > 100 µM (inactive) each time. For the same compound, the GI50 with CCRF-CEM, in the test with MDA-N, in the test on U-251, in the test with HCT-116, with IGROV-1 and in the test with CAKI-1 was > 100 µM (inactive) in each case. Besides, the GI50 in the test with UACC-257, in the test with MDA-MB-435, in the test with M14, with NCI-H226, in the test with T47D and in the test with DU-145 was > 100 µM (inactive) each time. Moreover, in the test with HCT-15, the GI50 is > 100 µM.

In the case of `COc1ccc2c(c1)/C(=C\c1c(Cl)[nH]c3cc(C)c(OC)cc13)C(=O)N2`, the GI50 in the test with MDA-MB-231 was 2.93 µM (inactive); with SNB-19 it was 1.39 µM (inactive); with UACC-62, 0.434 µM (active); in the test with K562, 0.522 µM (active); with OVCAR-8, 1.96 µM (inactive); in the test with A498, 0.83 µM (active). Besides, the GI50 with CCRF-CEM was 0.726 µM (active); in the test with MDA-N it was 0.23 µM (active); in the test with U-251 it was 0.653 µM (active); in the test with HCT-116, 0.979 µM (active); in the test with IGROV-1, 0.467 µM (active); in the test with CAKI-1 it was 1.46 µM (inactive). Also, the GI50 was 2.63 µM (inactive) in the test with UACC-257; 0.198 µM (active) with MDA-MB-435; 0.698 µM (active) with M14; 6.04 µM (inactive) in the test on NCI-H226; 12.9 µM (inactive) in the test with T47D; 1.66 µM (inactive) with DU-145. The GI50 in the test on HCT-15 was 0.467 µM.
